We go through 6 compounds from PMC7400577 (Scientific Reports, 2020).

Substitutions are numbered along the chain they refer to. Where two headings read alike, the source gives them in different places.

The target of one assay is T1, hGAT3 wt (Homo sapiens, UniProt P48066).
T1 construct: expressed in transfected cells; host or cells: tsA201 cells, transient (PolyFect), pcDNA5/FRT vector
T1 sequence (P48066 1-632): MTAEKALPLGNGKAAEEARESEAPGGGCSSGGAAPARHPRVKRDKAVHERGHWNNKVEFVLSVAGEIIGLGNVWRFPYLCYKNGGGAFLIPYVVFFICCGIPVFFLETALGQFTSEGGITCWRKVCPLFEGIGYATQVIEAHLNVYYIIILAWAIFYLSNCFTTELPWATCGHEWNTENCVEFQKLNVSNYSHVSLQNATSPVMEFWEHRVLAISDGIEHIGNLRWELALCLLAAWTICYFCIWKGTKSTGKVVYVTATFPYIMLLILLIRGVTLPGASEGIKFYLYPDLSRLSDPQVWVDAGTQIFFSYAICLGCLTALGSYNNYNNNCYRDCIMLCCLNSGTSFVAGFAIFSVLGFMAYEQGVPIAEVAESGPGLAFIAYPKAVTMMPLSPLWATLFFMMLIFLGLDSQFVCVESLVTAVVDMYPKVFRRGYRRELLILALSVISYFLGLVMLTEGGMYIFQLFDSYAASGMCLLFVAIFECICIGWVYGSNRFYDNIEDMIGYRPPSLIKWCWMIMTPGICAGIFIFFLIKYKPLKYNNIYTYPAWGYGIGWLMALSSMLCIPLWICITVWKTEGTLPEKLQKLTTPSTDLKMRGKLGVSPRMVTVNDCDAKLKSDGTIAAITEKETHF
As to the kind of experiment: [3H]GABA uptake inhibition at wt hGAT3 transiently expressed in tsA201 cells. It counts as cell-based. The conditions noted are these: 30 nM [3H]GABA, transient expression.

In the next assay the target is T2, hBGT1 wt (Homo sapiens, UniProt P48065).
T2 construct: expressed in transfected cells; host or cells: tsA201 cells, transient (PolyFect), pcDNA5/FRT vector
T2 sequence (P48065 1-614): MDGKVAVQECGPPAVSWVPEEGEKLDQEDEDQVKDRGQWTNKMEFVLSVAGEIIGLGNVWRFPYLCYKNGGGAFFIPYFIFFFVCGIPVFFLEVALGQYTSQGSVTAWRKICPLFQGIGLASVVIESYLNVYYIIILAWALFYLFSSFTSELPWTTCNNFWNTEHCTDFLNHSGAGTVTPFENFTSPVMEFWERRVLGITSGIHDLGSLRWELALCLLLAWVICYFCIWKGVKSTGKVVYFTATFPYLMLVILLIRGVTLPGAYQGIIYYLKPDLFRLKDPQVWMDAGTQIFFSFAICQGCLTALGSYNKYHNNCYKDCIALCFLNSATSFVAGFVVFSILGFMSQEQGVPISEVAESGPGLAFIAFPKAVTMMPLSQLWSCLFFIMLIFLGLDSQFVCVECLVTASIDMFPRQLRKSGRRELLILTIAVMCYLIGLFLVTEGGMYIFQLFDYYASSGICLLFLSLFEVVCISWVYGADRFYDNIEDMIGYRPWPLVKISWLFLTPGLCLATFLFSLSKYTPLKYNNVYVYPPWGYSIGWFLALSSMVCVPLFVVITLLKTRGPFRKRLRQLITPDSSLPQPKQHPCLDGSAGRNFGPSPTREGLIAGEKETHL
As to the kind of experiment: [3H]GABA uptake inhibition at wt hBGT1 transiently expressed in tsA201 cells. In kind it is cell-based. The conditions noted are these: 30 nM [3H]GABA, tsA201 cells transiently expressing wt hBGT1.

Another assay has as its target T3, hBGT1 E52A (Homo sapiens, UniProt P48065, E52A).
T3 sequence (P48065 1-614 E52A): T2 sequence (P48065 1-614) with E52A
As to the kind of experiment: cell-based. The conditions noted are these: 30 nM [3H]GABA, tsA201 cells, transient expression.

Another assay addresses T4, hGAT3 L314Q (Homo sapiens, UniProt P48066, L314Q).
T4 construct: expressed in transfected cells; host or cells: tsA201 cells, transient (PolyFect), pcDNA5/FRT vector
T4 sequence (P48066 1-632 L314Q): T1 sequence (P48066 1-632) with L314Q
Put plainly: [3H]GABA uptake inhibition at hGAT3 L314Q transiently expressed in tsA201 cells. It counts as cell-based. The conditions noted are these: 30 nM [3H]GABA, transient expression.

Where [1] appears, read: read-out: pIC50 ± S.E.M. BGT1 wt (converted).
Where [2] appears, read: read-out: pIC50 ± S.E.M. GAT3 wt (converted).
[3] abbreviates: read-out: pIC50 ± S.E.M. GAT3 L314Q (converted).

In the case of `C[C@@H]1N=C(N)NC[C@@H]1C(=O)O` (single isomer, unassigned) [l-15a], the IC50 on hGAT3 wt (read-out: IC50 GAT3 wt) is more than 1000 µM; at hBGT1 wt (setting [1]) it was 20.9 µM; against hBGT1 E52A (pIC50 ± S.E.M. BGT1 E52A), 37.2 µM; on hGAT3 L314Q (read-out: IC50 GAT3 L314Q) it was more than 1000 µM.

Regarding `CCN1CC(C(=O)O)CN=C1N.Cl` (stereo not drawn) [compound 3], the IC50 is more than 1000 µM on hGAT3 wt (read-out: IC50 GAT3 wt); 406 µM at hBGT1 wt (read-out: IC50 BGT1 wt); 398 µM at hBGT1 wt (setting [1]); 74 µM at hBGT1 E52A (IC50 BGT1 E52A); 72.4 µM at hBGT1 E52A (pIC50 ± S.E.M. BGT1 E52A); more than 1000 µM on hGAT3 L314Q (read-out: IC50 GAT3 L314Q).

Consider `Cl.NC1=NCC(C(=O)O)CN1Cc1ccccc1` (stereo not drawn) [compound 4], for which the IC50 at hGAT3 wt (read-out: IC50 GAT3 wt) was 122 µM; at hGAT3 wt (setting [2]), 115 µM; on hBGT1 wt (read-out: IC50 BGT1 wt), 354 µM; at hBGT1 wt (setting [1]), 324 µM; against hBGT1 E52A (IC50 BGT1 E52A), 90 µM; against hBGT1 E52A (pIC50 ± S.E.M. BGT1 E52A), 87.1 µM. Also, the IC50 was 500 µM at hGAT3 L314Q (read-out: IC50 GAT3 L314Q) and 490 µM at hGAT3 L314Q (setting [3]).

In the case of `NC1=NC=C(C(=O)O)CN1.O=C(O)C(F)(F)F` [compound 11], the IC50 at hGAT3 wt (read-out: IC50 GAT3 wt) is more than 1000 µM; at hBGT1 wt (read-out: IC50 BGT1 wt) it was 220 µM; at hBGT1 E52A (IC50 BGT1 E52A), 247 µM; at hBGT1 E52A (pIC50 ± S.E.M. BGT1 E52A) it was 240 µM; at hGAT3 L314Q (read-out: IC50 GAT3 L314Q) it was more than 1000 µM.

Take `NC1=NCC(C(=O)O)CC1` (stereo not drawn) [compound 2, 6-amino-2,3,4,5-tetrahydropyridine-3-carboxylic acid, reference compound]: the IC50 was more than 1000 µM at hGAT3 wt (read-out: IC50 GAT3 wt); 52 µM at hBGT1 wt (read-out: IC50 BGT1 wt); 51.3 µM on hBGT1 wt (setting [1]); 31 µM against hBGT1 E52A (IC50 BGT1 E52A); 30.2 µM at hBGT1 E52A (pIC50 ± S.E.M. BGT1 E52A); 695 µM on hGAT3 L314Q (read-out: IC50 GAT3 L314Q).

Turning to `NC1=NCC(C(=O)O)CN1` (stereo not drawn) [ATPCA, 2-amino-1,4,5,6-tetrahydropyrimidine-5-carboxylic acid, reference compound], the IC50 is 851 µM on hGAT3 wt (read-out: IC50 GAT3 wt); 589 µM at hGAT3 wt (setting [2]); 11 µM on hBGT1 wt (read-out: IC50 BGT1 wt); 10.5 µM on hBGT1 wt (setting [1]); 4.4 µM against hBGT1 E52A (IC50 BGT1 E52A); 66 µM on hGAT3 L314Q (read-out: IC50 GAT3 L314Q). Moreover, the IC50 at hGAT3 L314Q (setting [3]) is 58.9 µM.
